The numbers were not newly measured in US20240173233A1, “COSMETIC SACHET FOR REDUCING AGE-RELATED SYMPTOMS IN HUMAN SKIN” (Bloo Pharmapeutica Inc., priority 2022, published 2024), which cites them from elsewhere.

SMILES strings stand for the structures.

For series [1], the system named is cultured human skin fibroblasts derived from healthy donors and from patients with progeria.
Series [2] has as its system skin fibroblast. The note with it: in comparison with other widely used general and mitochondrial-targeting antioxidants.
In series [3] the test system is 3D skin model.
In series [4] the test system is elastin and collagen 2A1. The following applies: MB treatment of skin.

For the compound `CN(C)c1ccc2nc3ccc(=[N+](C)C)cc-3sc2c1.[Cl-]` [methylene blue, [7-(dimethylamino)phenothiazine-3-ylidene]-dimethylazanium chloride], the “reactive oxygen species (ROS) scavenging efficacy” value in series [1] is recorded as “potent reactive oxygen species (ROS) scavenging efficacy”. In series [2], the delaying cellular senescence entry was “more effective” and the “stimulating skin fibroblast proliferation” value is reported as “more effective”. For the same compound, in series [3], the dermis thickness entry is “increased skin hydration and dermis thickness”; the skin hydration entry is “increased skin hydration”; the skin viability entry was “improved skin viability”; the wound healing entry is recorded as “promoted wound healing”. Further, the “expression of extracellular matrix proteins” value in series [4] was “upregulation of elastin and collagen 2A1”.
